Source: PubChem BioAssay AID256 (DTP/NCI, 2004)
Where “and” joins values, the source holds several entries; their conditions need not be identical. Equal entries are not always repeated. Inconclusive results and toxic doses are left out.

Tested on: CD2F1 mice, L1210 leukemia ip, survival T/C
Test: NCI In Vivo Anticancer Drug Screen. Data for tumor model L1210 Leukemia (intraperitoneal) in CD2F1 (CDF1) mice
Conditions: endpoint: mean survival time, higher = longer survival
Procedure, shortened: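 Ratio T/C, where T is the treated-group value and C the vehicle-dosed control value, from mice implanted with a transplantable tumor.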

[1] = dose: 100.0 mg/kg/injection, schedule: Q01DX009 (ip), vehicle: saline with Tween-80
[2] = dose: 100.0 mg/kg/injection, schedule: Q04DX003 (ip), vehicle: saline with Tween-80
[3] = dose: 200.0 mg/kg/injection, schedule: Q01DX009 (ip), vehicle: saline with Tween-80
[4] = dose: 200.0 mg/kg/injection, schedule: Q04DX003 (ip), vehicle: saline with Tween-80
[5] = dose: 400.0 mg/kg/injection, schedule: Q01DX009 (ip), vehicle: saline with Tween-80
[6] = dose: 400.0 mg/kg/injection, schedule: Q04DX003 (ip), vehicle: saline with Tween-80
[7] = dose: 100.0 mg/kg/injection, schedule: Q04DX003 (ip), vehicle: saline
[8] = dose: 200.0 mg/kg/injection, schedule: Q04DX003 (ip), vehicle: saline
[9] = dose: 100.0 mg/kg/injection, schedule: Q01DX001 (ip), vehicle: saline
[10] = dose: 200.0 mg/kg/injection, schedule: Q01DX001 (ip), vehicle: saline
[11] = dose: 400.0 mg/kg/injection, schedule: Q01DX001 (ip), vehicle: saline
[12] = dose: 100.0 mg/kg/injection, schedule: Q04DX002 (ip), vehicle: saline with Tween-80
[13] = dose: 400.0 mg/kg/injection, schedule: Q04DX002 (ip), vehicle: saline with Tween-80

## CC1CNC(=S)O1 (centres undefined)
dose: 25.0 mg/kg/injection, schedule: Q01DX009 (ip), vehicle: saline with Tween-80
  T/C: 102 % of control
dose: 50.0 mg/kg/injection, schedule: Q01DX009 (ip), vehicle: saline with Tween-80
  T/C: 100 % of control
[1]
  T/C: 97 % of control and 103 % of control
[2]
  T/C: 100 % of control
[3]
  T/C: 97 % of control and 95 % of control
[4]
  T/C: 97 % of control
[5]
  T/C: 97 % of control and 106 % of control
[6]
  T/C: 103 % of control

## O=S(=O)(Cl)c1cccc2cc3ccccc3cc12
[7]
  T/C: 109 % of control
[8]
  T/C: 97 % of control
dose: 400.0 mg/kg/injection, schedule: Q04DX003 (ip), vehicle: saline
  T/C: 103 % of control

## C1CC[N-]CC1.C1CC[N-]CC1.O=C(O)CC(=O)O.[Pt+2]
dose: 3.13 mg/kg/injection, schedule: Q04DX003 (ip), vehicle: saline with Tween-80
  T/C: 100 % of control
dose: 6.25 mg/kg/injection, schedule: Q04DX003 (ip), vehicle: saline with Tween-80
  T/C: 97 % of control
dose: 12.5 mg/kg/injection, schedule: Q04DX003 (ip), vehicle: saline with Tween-80
  T/C: 100 % of control
dose: 25.0 mg/kg/injection, schedule: Q04DX003 (ip), vehicle: saline with Tween-80
  T/C: 100 % of control
dose: 50.0 mg/kg/injection, schedule: Q04DX003 (ip), vehicle: saline with Tween-80
  T/C: 97 % of control
[2]
  T/C: 100 % of control
[4]
  T/C: 96 % of control

## CC1C[C@@H](O)C(NC(=O)N(CCCl)N=O)[C@@H](O)C1 (some centres undefined)
dose: 6.0 mg/kg/injection, schedule: Q01DX001 (ip), vehicle: saline
  T/C: 191 % of control
dose: 9.0 mg/kg/injection, schedule: Q01DX001 (ip), vehicle: saline
  T/C: 367 % of control
dose: 13.0 mg/kg/injection, schedule: Q01DX001 (ip), vehicle: saline
  T/C: 297 % of control
dose: 20.0 mg/kg/injection, schedule: Q01DX001 (ip), vehicle: saline
  T/C: 500 % of control
dose: 30.0 mg/kg/injection, schedule: Q01DX001 (ip), vehicle: saline
  T/C: 298 % of control

## CC1(O)CS(=O)(=O)CC1O (centres undefined)
[9]
  T/C: 105 % of control
[10]
  T/C: 103 % of control
[11]
  T/C: 101 % of control

## Cc1ccc(S(=O)(=O)N/N=C2\CC3CCC2C3)cc1 (centres undefined)
[1]
  T/C: 90 % of control and 105 % of control
[3]
  T/C: 96 % of control and 100 % of control
[5]
  T/C: 93 % of control and 96 % of control

## CC12CCC3C(CCC4CC(O)CCC43C)C1CCC2=O (centres undefined)
[2]
  T/C: 103 % of control
[4]
  T/C: 92 % of control
[6]
  T/C: 97 % of control

## Cc1cc(S(=O)(=O)F)cc(Cl)c1OC(=S)N(C)C
[12]
  T/C: 96 % of control
dose: 200.0 mg/kg/injection, schedule: Q04DX002 (ip), vehicle: saline with Tween-80
  T/C: 96 % of control
[13]
  T/C: 92 % of control

## CN(C)/C=N/NC(=O)c1ccccc1O
[2]
  T/C: 98 % of control
[4]
  T/C: 100 % of control
[6]
  T/C: 100 % of control

## c1ccc(OP(Oc2ccccc2)Oc2ccccc2)cc1
dose: 50.0 mg/kg/injection, schedule: Q04DX003 (ip), vehicle: saline
  T/C: 98 % of control
[7]
  T/C: 104 % of control
[8]
  T/C: 96 % of control

## O=[N+]([O-])c1ccc2[nH]ncc2c1
dose: 100.0 mg/kg/injection, schedule: Q01DX001 (ip), vehicle: saline with Tween-80
  T/C: 103 % of control
dose: 200.0 mg/kg/injection, schedule: Q01DX001 (ip), vehicle: saline with Tween-80
  T/C: 92 % of control
dose: 400.0 mg/kg/injection, schedule: Q01DX001 (ip), vehicle: saline with Tween-80
  T/C: 100 % of control

## CCCCCCCCCCCCCCCCCCC#N
[1]
  T/C: 100 % of control
[2]
  T/C: 92 % of control
[3]
  T/C: 96 % of control
[4]
  T/C: 98 % of control
[5]
  T/C: 93 % of control
[6]
  T/C: 95 % of control

## CCN(CC)C(=S)SC
dose: 75.0 mg/kg/injection, schedule: Q01DX001 (ip), vehicle: saline
  T/C: 104 % of control
dose: 150.0 mg/kg/injection, schedule: Q01DX001 (ip), vehicle: saline
  T/C: 106 % of control

## O=[N+]([O-])c1ccc(SC2CCC(Cl)C3CCCCC23)c([N+](=O)[O-])c1 (centres undefined)
dose: 25.0 mg/kg/injection, schedule: Q04DX002 (ip), vehicle: saline with Tween-80
  T/C: 93 % of control
dose: 50.0 mg/kg/injection, schedule: Q04DX002 (ip), vehicle: saline with Tween-80
  T/C: 90 % of control
[12]
  T/C: 86 % of control and 93 % of control
[13]
  T/C: 86 % of control

## O=C(O)c1ccccc1.[Pb]
[9]
  T/C: 94 % of control
[10]
  T/C: 102 % of control
[11]
  T/C: 96 % of control
